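The compound was tested at five concentrations on cells cultured in 96-well plates, with a 48-hour exposure period. Here, GI50 denotes the concentration required for 50% inhibition of growth.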 Active and inactive are the calls of the source. No stated cut-off is given here; in the data, active = GI50 up to about 1.1 µM and inactive = higher.
Tests used:
Experiment in all cases: DTP human tumour cell line panel, 48 h
U-251 = tested on: U-251
RXF 393 = tested on: RXF 393
DMS-114 = tested on: DMS-114
OVCAR-8 = tested on: OVCAR-8
DMS-273 = tested on: DMS-273
SNB-78 = tested on: SNB-78
UO-31 = tested on: UO-31
MOLT-4 = tested on: MOLT-4
A498 = tested on: A498
TK-10 = tested on: TK-10
KM12 = tested on: KM12
IGROV-1 = tested on: IGROV-1
NCI-H23 = tested on: NCI-H23
EKVX = tested on: EKVX
NCI-H460 = tested on: NCI-H460
UACC-257 = tested on: UACC-257
HCT-116 = tested on: HCT-116
HL-60 = tested on: HL-60
M14 = tested on: M14
NCI-H522 = tested on: NCI-H522
A549 = tested on: A549
HOP-62 = tested on: HOP-62
HT-29 = tested on: HT-29
SNB-19 = tested on: SNB-19
OVCAR-5 = tested on: OVCAR-5
SR = tested on: SR
M19-MEL = tested on: M19-MEL
UACC-62 = tested on: UACC-62
SK-OV-3 = tested on: SK-OV-3
NCI-H226 = tested on: NCI-H226
SF-268 = tested on: SF-268
CCRF-CEM = tested on: CCRF-CEM
HOP-92 = tested on: HOP-92
SK-MEL-28 = tested on: SK-MEL-28
KM-20L2 = tested on: KM-20L2
SN12C = tested on: SN12C
ACHN = tested on: ACHN
SK-MEL-5 = tested on: SK-MEL-5
LXFL 529 = tested on: LXFL 529
RPMI-8226 = tested on: RPMI-8226
SK-MEL-2 = tested on: SK-MEL-2
SW-620 = tested on: SW-620
DLD-1 = tested on: DLD-1
OVCAR-4 = tested on: OVCAR-4
OVCAR-3 = tested on: OVCAR-3
COLO 205 = tested on: COLO 205
HCC 2998 = tested on: HCC 2998
LOX IMVI = tested on: LOX IMVI
Malme-3M = tested on: Malme-3M
SF-295 = tested on: SF-295
786-0 = tested on: 786-0
SNB-75 = tested on: SNB-75

Measured: GI50

COc1ccc(OC)c2c(=O)c3ccccc3[nH]c12
inactive: U-251 54.1 µM | RXF 393 41.2 µM | DMS-114 66.8 µM | OVCAR-8 19.3 µM | DMS-273 62.5 µM | SNB-78 49.7 µM | UO-31 30.9 µM | MOLT-4 47.9 µM | A498 69.3 µM | TK-10 > 100 µM | KM12 57.8 µM | IGROV-1 > 100 µM | NCI-H23 41.7 µM | EKVX > 100 µM | NCI-H460 38.9 µM | UACC-257 4.44 µM | HCT-116 44.2 µM | HL-60 48.3 µM | M14 74.8 µM | NCI-H522 82.8 µM | A549 47 µM | HOP-62 > 100 µM | HT-29 45.6 µM | SNB-19 96.6 µM | OVCAR-5 70.1 µM | SR 41.1 µM | M19-MEL > 100 µM | UACC-62 43.6 µM | SK-OV-3 > 100 µM | NCI-H226 66.5 µM | SF-268 54.3 µM | CCRF-CEM > 100 µM | HOP-92 37.1 µM | SK-MEL-28 > 100 µM

Cc1ccc(NC(=O)CCC/C(CC(=O)c2ccc(Br)cc2)=N/NC(=O)CC#N)cc1
inactive: U-251 > 100 µM | KM-20L2 > 100 µM | SN12C > 100 µM | ACHN > 100 µM | RXF 393 > 100 µM | DMS-114 > 100 µM | OVCAR-8 > 100 µM | SNB-78 > 100 µM | SK-MEL-5 > 100 µM | LXFL 529 > 100 µM | UO-31 > 100 µM | MOLT-4 > 100 µM | RPMI-8226 > 100 µM | TK-10 > 100 µM | KM12 > 100 µM | IGROV-1 > 100 µM | NCI-H23 > 100 µM | SK-MEL-2 > 100 µM | EKVX > 100 µM | SW-620 > 100 µM | DLD-1 > 100 µM | NCI-H460 > 100 µM | UACC-257 > 100 µM | OVCAR-4 > 100 µM | HCT-116 > 100 µM | HL-60 > 100 µM | M14 > 100 µM | A549 > 100 µM | HOP-62 > 100 µM | HT-29 > 100 µM | SNB-19 > 100 µM | OVCAR-5 > 100 µM | M19-MEL > 100 µM | UACC-62 > 100 µM | OVCAR-3 > 100 µM | COLO 205 > 100 µM | NCI-H226 > 100 µM | SF-268 > 100 µM | HCC 2998 > 100 µM | LOX IMVI > 100 µM | Malme-3M > 100 µM | CCRF-CEM > 100 µM | HOP-92 > 100 µM | SF-295 > 100 µM | 786-0 > 100 µM | SNB-75 > 100 µM | SK-MEL-28 > 100 µM

Reference: ChEMBL document CHEMBL1201862, “PubChem BioAssay data set” (2004)
